Earlier results, collected in patent publication EP3796908B1, “CONTROLLED RELEASE PROPIVERINE FORMULATIONS” (Santa Farma Ilaç Sanayi A.S., priority 2018, dated 2020).
Like-named read-outs stand apart in the source and are kept apart here.

What was measured:
[1] = for maximal plasma concentrations reached after / mean absolute bioavailability: oral administration
[2] = BCS classification
[3] = administration of the ER capsule

- mean Cmax [1, 3]: about 70 ng/ml
- time in which Cmax is reached after administration [1, 3]: ≤ 9.5 h
- maximal plasma concentrations reached after ([1]; immediate release): 2.3 h
- mean absolute bioavailability ([1]; immediate release): 40.5%
- maximal plasma concentrations reached after ([1]; modified release): 9.9 h
- mean absolute bioavailability ([1]; modified release): 60.8 ± 17.3%
- solubility [2]: high solubility
Compound: CCCOC(C(=O)OC1CCN(C)CC1)(c1ccccc1)c1ccccc1 [propiverine, 1-methyl-4-piperidyl diphenylpropoxy acetate]
